Assays:
Type in all cases: in vivo
Tetranychus urticae = Tetranychus urticae (Two-spotted spider mite) bean leaf disc spray test; details: foliar, 192 h, application rate of 200 ppm, 8 days after infestation, read-out: mortality on mixed population (mobile stages)
Experimental: Tetranychus urticae (Two-spotted spider mite):
Bean leaf discs on agar in 24-well microtiter plates were sprayed with aqueous test solutions prepared from 10,000 ppm DMSO stock solutions. After drying the leaf discs were infested with a mite population of mixed ages. The samples were assessed for mortality on mixed population (mobile stages) 8 days after infestation.

Plutella xylostella = Plutella xylostella (Diamond back moth) artificial diet test; details: 120 h, application rate of 200 ppm, L2 larvae, 5 days after infestation, read-out: effect in at least one of the two categories (mortality or growth inhibition)
Experimental: Plutella xylostella (Diamond back moth):
24-well microtiter plates with artificial diet were treated with aqueous test solutions prepared from 10,000 ppm DMSO stock solutions by pipetting. After drying, the plates were infested with L2 larvae (10 to 15 per well). The samples were assessed for mortality and growth inhibition in comparison to untreated samples 5 days after infestation. The following compounds gave an effect of at least 80% in at least one of the two categories (mortality or growth inhibition) at an application rate of 200 ppm: 1, 2, 3, 4, 7 and 10.

Spodoptera littoralis = Spodoptera littoralis (Egyptian cotton leaf worm) cotton leaf disc spray test; details: foliar, 72 h, application rate of 200 ppm, L1 larvae, 3 days after infestation, read-out: control (at least one of mortality, anti-feedant effect, growth inhibition)
Experimental: Spodoptera littoralis (Egyptian cotton leaf worm)
Cotton leaf discs were placed on agar in 24-well microtiter plates and sprayed with aqueous test solutions prepared from 10,000 ppm DMSO stock solutions. After drying the leaf discs were infested with five L1 larvae. The samples were assessed for mortality, anti-feedant effect, and growth inhibition in comparison to untreated samples 3 days after infestation. Control of Spodoptera littoralis by a test sample is when at least one of mortality, anti-feedant effect, and growth inhibition is higher than the untreated sample.

Diabrotica balteata = Diabrotica balteata (Corn root worm) maize sprout spray test; details: 96 h, application rate of 200 ppm, L2 larvae, 4 days after infestation, read-out: effect in at least one of the two categories (mortality or growth inhibition)
Experimental: Diabrotica balteata, (Corn root worm)
Maize sprouts, placed on an agar layer in 24-well microtiter plates were treated with aqueous test solutions prepared from 10,000 ppm DMSO stock solutions by spraying. After drying, the plates were infested with L2 larvae (6 to 10 per well). The samples were assessed for mortality and growth inhibition in comparison to untreated samples 4 days after infestation. The following compounds gave an effect of at least 80% in at least one of the two categories (mortality or growth inhibition) at an application rate of 200 ppm: 1, 2, 3 and 7.

Euschistus heros = Euschistus heros (Neotropical Brown Stink Bug) soybean leaf spray test; details: 120 h, application rate of 200 ppm, N2 nymphs, 5 days after infestation, read-out: effect in at least one of the two categories (mortality or growth inhibition)
Experimental: Euschistus heros (Neotropical Brown Stink Bug)
Soybean leaves on agar in 24-well microtiter plates were sprayed with aqueous test solutions prepared from 10,000 ppm DMSO stock solutions. After drying the leaves were infested with N2 nymphs. The samples were assessed for mortality and growth inhibition in comparison to untreated samples 5 days after infestation. The following compounds gave an effect of at least 80% in at least one of the two categories (mortality or growth inhibition) at an application rate of 200 ppm: 1, 3 and 7.

Thrips tabaci = Thrips tabaci (Onion thrips) sunflower leaf disc spray test; details: foliar, 144 h, application rate of 200 ppm, population of mixed ages, 6 days after infestation
Experimental: Thrips tabaci (Onion thrips):
Sunflower leaf discs were placed on agar in 24-well microtiter plates and sprayed with aqueous test solutions prepared from 10,000 ppm DMSO stock solutions. After drying the leaf discs were infested with a thrips population of mixed ages. The samples were assessed for mortality 6 days after infestation.

Cn1nc(C(F)(F)C(F)(F)F)c(OC(F)F)c1-n1cc(-c2cc(C(=O)NC3CC3)c(C#N)s2)nn1 [Example 1, 2-cyano-N-cyclopropyl-5-[1-[4-(difluoromethoxy)-2-methyl-5-(1,1,2,2,2-pentafluoroethyl)pyrazol-3-yl]triazol-4-yl]thiophene-3-carboxamide]
≥ 80%: mortality at 200 ppm (Tetranychus urticae) | percent effect (mortality or growth inhibition) at 200 ppm (Plutella xylostella) | percent control (mortality, anti-feedant effect or growth inhibition) at 200 ppm (Spodoptera littoralis) | percent effect (mortality or growth inhibition) at 200 ppm (Diabrotica balteata) | percent effect (mortality or growth inhibition) at 200 ppm (Euschistus heros) | mortality at 200 ppm (Thrips tabaci)

CN(C(=O)c1cc(-c2cn(-c3c(OC(F)F)c(C(F)(F)C(F)(F)F)nn3C)nn2)sc1C#N)C1CC1 [Example 2, 2-cyano-N-cyclopropyl-5-[1-[4-(difluoromethoxy)-2-methyl-5-(1,1,2,2,2-pentafluoroethyl)pyrazol-3-yl]triazol-4-yl]-N-methyl-thiophene-3-carboxamide]
≥ 80%: mortality at 200 ppm (Tetranychus urticae) | percent effect (mortality or growth inhibition) at 200 ppm (Plutella xylostella) | percent control (mortality, anti-feedant effect or growth inhibition) at 200 ppm (Spodoptera littoralis) | percent effect (mortality or growth inhibition) at 200 ppm (Diabrotica balteata) | mortality at 200 ppm (Thrips tabaci)

CCN(C(=O)c1cc(-c2cn(-c3c(OC(F)F)c(C(F)(F)C(F)(F)F)nn3C)nn2)sc1C#N)C1CC1 [Example 3, 2-cyano-N-cyclopropyl-5-[1-[4-(difluoromethoxy)-2-methyl-5-(1,1,2,2,2-pentafluoroethyl)pyrazol-3-yl]triazol-4-yl]-N-ethyl-thiophene-3-carboxamide]
≥ 80%: mortality at 200 ppm (Tetranychus urticae) | percent effect (mortality or growth inhibition) at 200 ppm (Plutella xylostella) | percent control (mortality, anti-feedant effect or growth inhibition) at 200 ppm (Spodoptera littoralis) | percent effect (mortality or growth inhibition) at 200 ppm (Diabrotica balteata) | percent effect (mortality or growth inhibition) at 200 ppm (Euschistus heros) | mortality at 200 ppm (Thrips tabaci)

Cn1nc(C(F)(F)C(F)(F)F)c(OC(F)F)c1-n1cc(-c2cc(C(=O)NC3(C#N)CC3)c(C#N)s2)nn1 [Example 4, 2-cyano-N-(1-cyanocyclopropyl)-5-[1-[4-(difluoromethoxy)-2-methyl-5-(1,1,2,2,2-pentafluoroethyl)pyrazol-3-yl]triazol-4-yl]thiophene-3-carboxamide]
≥ 80%: mortality at 200 ppm (Tetranychus urticae) | percent effect (mortality or growth inhibition) at 200 ppm (Plutella xylostella) | percent control (mortality, anti-feedant effect or growth inhibition) at 200 ppm (Spodoptera littoralis) | mortality at 200 ppm (Thrips tabaci)

Cn1nc(C(F)(F)C(F)(F)F)c(OC(F)F)c1-n1cc(-c2cc(C(=O)NC3CC3)c(Cl)s2)nn1 [Example 7, 2-chloro-N-cyclopropyl-5-[1-[4-(difluoromethoxy)-2-methyl-5-(1,1,2,2,2-pentafluoroethyl)pyrazol-3-yl]triazol-4-yl]thiophene-3-carboxamide]
≥ 80%: percent effect (mortality or growth inhibition) at 200 ppm (Plutella xylostella) | percent control (mortality, anti-feedant effect or growth inhibition) at 200 ppm (Spodoptera littoralis) | percent effect (mortality or growth inhibition) at 200 ppm (Diabrotica balteata) | percent effect (mortality or growth inhibition) at 200 ppm (Euschistus heros) | mortality at 200 ppm (Thrips tabaci)

Cn1nc(C(F)(F)C(F)(F)F)c(OC(F)F)c1-n1cc(-c2cc(C(=O)NC3(C#N)CC3)c(Cl)s2)nn1 [Example 10, 2-chloro-N-(1-cyanocyclopropyl)-5-[1-[4-(difluoromethoxy)-2-methyl-5-(1,1,2,2,2-pentafluoroethyl)pyrazol-3-yl]triazol-4-yl]thiophene-3-carboxamide]
≥ 80%: percent effect (mortality or growth inhibition) at 200 ppm (Plutella xylostella) | percent control (mortality, anti-feedant effect or growth inhibition) at 200 ppm (Spodoptera littoralis) | mortality at 200 ppm (Thrips tabaci)
